Source: ChEMBL document CHEMBL1201862, “PubChem BioAssay data set” (2004)
Active and inactive are the calls of the source. Cut-off read from the data, not from the text of the source, for most assays here: actives have a measured EC50 and inactives only a lower limit.

What was measured:
[1] = cytotoxicity toward NIH3T3 fibroblasts, dose response, counter-screen, cell-based, ATP luminescence, mouse fibroblasts (AID 2010); type: functional; settings: NIH3T3;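 note: cells exposed to compound for about 90 hours before reading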
cells [2] = assay: cells
[3] = inhibitors of intracellular T. cruzi replication, confirmation, NIH3T3 host cells, beta-gal luminescence (AID 2044); type: functional, cell-based;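 note: intracellular parasites grown in NIH/3T3 mouse fibroblasts as host cells; luminescent beta-galactosidase reporter signal from transgenic T. cruzi replicating inside host cells; inhibitors lower the luminescence signal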
Mucolipin-3 = biological target: T1, Mucolipin-3 (Homo sapiens, UniProt Q8TDD5); assay: Dose response cell-based high-throughput screening assay for agonists of the transient receptor potential channel ML3 (TRPML3). [Related pubchem assays: 1526, 1424, 1448 ]; type: functional
T1 sequence (Q8TDD5 whole entry): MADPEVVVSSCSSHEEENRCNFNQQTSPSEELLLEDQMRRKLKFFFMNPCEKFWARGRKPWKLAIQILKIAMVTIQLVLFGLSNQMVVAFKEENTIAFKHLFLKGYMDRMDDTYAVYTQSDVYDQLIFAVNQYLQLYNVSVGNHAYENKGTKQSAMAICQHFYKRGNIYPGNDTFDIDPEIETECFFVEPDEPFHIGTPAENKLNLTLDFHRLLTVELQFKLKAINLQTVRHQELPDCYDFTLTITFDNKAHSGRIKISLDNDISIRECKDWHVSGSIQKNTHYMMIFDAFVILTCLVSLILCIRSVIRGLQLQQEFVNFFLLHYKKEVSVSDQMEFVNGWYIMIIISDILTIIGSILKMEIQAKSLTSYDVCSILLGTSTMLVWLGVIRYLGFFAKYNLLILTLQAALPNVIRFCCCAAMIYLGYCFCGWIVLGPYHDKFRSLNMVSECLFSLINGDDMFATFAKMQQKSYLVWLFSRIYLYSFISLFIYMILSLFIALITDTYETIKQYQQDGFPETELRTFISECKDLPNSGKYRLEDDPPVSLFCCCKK

Ion channel NompC = Ion channel NompC (Danio rerio, UniProt Q7T1G6); assay: Fluorescence counterscreen assay for TRPML3 agonists: dose response cell-based high-throughput screening assay to identify agonists of the transient receptor potential channel N1 (TRPN1). [Related pubchem assays: 1526, 1424, 1448 ]; type: functional
H4 = assay: Luminescence Cell-Based Dose Response HTS to Identify Activators of 5'UTR Stem-Loop Driven Prion Protein mRNA Translation in H4 Neuroglioblastoma Cells. [Related pubchem assays: 1829 (Project Summary), 1814 (Primary HTS)]; type: functional; settings: Homo sapiens
[4] = Luminescence Cell-Based Dose Response HTS to Identify Activators of Luciferase Translation or Activity in H4 […] Cells. [Related pubchem assays: 1829 (Project Summary), 1814 (Primary HTS)]; type: functional
[5] = Luminescence Cell-Based Dose Confirmation HTS to Identify Activators of 5'UTR Stem-Loop Driven Alpha-Synuclein mRNA Translation in H4 Neuroglioblastoma Cells. [Related pubchem assays: 1829 (Project Summary), 1814 (Primary HTS)]; type: functional
[6] = cytotoxicity in HPDE-C7 cells, cell-based, fluorescence, HTS (AID 430); type: functional; settings: Homo sapiens
[7] = cytotoxicity in KRAS-transformed pancreatic duct cells, primary screen, cell-based, fluorescence, HTS (AID 431); type: functional; settings: Homo sapiens;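 note: cell line used: HPDE-C7K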
[8] = biological target: Peroxisome proliferator-activated receptor gamma/Nuclear receptor coactivator 1 (Homo sapiens, UniProt P37231); type: functional;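 note: agonist potency as compounds enhance coactivator SRC-1 recruitment to PPARgamma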
[9] = biological target: Peroxisome proliferator-activated receptor gamma/Nuclear receptor coactivator 2 (Homo sapiens, UniProt P37231); type: functional;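 note: agonist potency for raising coactivator recruitment to the receptor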
Chain of Peroxisome proliferator-activated receptor gamma/Nuclear receptor coactivator 2 (P37231 whole entry): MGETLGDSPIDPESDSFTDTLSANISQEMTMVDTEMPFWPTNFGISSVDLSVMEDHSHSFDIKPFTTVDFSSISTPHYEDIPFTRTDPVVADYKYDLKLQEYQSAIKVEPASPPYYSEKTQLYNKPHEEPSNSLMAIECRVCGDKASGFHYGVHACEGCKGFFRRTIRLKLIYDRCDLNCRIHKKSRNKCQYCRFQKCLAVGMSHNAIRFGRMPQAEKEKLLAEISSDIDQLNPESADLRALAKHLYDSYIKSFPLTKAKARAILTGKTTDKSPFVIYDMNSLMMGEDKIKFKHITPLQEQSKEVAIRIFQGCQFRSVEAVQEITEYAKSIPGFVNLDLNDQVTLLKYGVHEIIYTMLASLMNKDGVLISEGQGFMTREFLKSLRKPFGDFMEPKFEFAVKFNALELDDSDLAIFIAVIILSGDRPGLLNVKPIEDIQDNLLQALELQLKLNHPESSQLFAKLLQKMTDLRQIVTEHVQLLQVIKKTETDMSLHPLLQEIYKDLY
Chain of Peroxisome proliferator-activated receptor gamma/Nuclear receptor coactivator 2 (Q15596 whole entry, further chain): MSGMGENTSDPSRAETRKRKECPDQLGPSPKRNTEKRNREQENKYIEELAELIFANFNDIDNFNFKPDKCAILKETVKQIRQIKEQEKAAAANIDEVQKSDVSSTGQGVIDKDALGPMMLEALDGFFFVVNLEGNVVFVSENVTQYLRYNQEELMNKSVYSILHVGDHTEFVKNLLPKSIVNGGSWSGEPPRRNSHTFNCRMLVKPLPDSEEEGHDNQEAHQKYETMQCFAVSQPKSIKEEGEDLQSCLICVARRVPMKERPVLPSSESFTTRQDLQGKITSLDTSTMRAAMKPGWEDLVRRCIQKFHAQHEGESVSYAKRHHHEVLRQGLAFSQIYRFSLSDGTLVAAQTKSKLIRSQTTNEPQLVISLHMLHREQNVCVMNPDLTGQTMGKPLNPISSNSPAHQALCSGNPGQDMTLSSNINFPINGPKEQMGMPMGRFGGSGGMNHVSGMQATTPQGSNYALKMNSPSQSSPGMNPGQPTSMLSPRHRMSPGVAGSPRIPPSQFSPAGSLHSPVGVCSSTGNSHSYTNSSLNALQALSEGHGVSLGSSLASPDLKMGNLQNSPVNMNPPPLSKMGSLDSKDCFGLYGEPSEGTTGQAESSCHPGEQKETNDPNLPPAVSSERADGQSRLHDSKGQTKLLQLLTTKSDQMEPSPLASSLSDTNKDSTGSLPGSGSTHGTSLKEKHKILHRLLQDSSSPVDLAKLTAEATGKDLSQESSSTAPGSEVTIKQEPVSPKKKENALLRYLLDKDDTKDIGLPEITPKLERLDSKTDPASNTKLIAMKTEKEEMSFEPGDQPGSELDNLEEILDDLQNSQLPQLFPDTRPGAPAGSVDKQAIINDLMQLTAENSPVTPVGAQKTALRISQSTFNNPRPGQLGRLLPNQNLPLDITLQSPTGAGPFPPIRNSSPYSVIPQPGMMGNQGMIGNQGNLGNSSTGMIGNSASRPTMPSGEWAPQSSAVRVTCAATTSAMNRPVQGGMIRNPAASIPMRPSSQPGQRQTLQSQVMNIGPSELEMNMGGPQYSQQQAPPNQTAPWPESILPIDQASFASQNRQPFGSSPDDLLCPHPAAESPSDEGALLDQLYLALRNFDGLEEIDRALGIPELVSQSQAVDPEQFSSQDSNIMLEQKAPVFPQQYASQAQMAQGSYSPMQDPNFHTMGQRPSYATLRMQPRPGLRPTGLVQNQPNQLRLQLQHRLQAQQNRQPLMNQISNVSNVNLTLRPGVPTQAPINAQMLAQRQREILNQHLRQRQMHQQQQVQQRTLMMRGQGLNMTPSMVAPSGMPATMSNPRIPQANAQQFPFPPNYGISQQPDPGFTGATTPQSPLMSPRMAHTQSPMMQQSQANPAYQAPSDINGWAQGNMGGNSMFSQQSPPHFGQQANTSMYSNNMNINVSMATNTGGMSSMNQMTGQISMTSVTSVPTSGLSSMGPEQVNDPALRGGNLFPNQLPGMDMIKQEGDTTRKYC

[10] = biological target: Peroxisome proliferator-activated receptor gamma/Nuclear receptor coactivator 3 (Homo sapiens, UniProt P37231); type: functional;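 note: agonist potency for raising coactivator recruitment to the receptor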
Chain of Peroxisome proliferator-activated receptor gamma/Nuclear receptor coactivator 3 (P37231 whole entry): as the sequence (P37231 whole entry) above
Chain of Peroxisome proliferator-activated receptor gamma/Nuclear receptor coactivator 3 (Q9Y6Q9 whole entry, further chain): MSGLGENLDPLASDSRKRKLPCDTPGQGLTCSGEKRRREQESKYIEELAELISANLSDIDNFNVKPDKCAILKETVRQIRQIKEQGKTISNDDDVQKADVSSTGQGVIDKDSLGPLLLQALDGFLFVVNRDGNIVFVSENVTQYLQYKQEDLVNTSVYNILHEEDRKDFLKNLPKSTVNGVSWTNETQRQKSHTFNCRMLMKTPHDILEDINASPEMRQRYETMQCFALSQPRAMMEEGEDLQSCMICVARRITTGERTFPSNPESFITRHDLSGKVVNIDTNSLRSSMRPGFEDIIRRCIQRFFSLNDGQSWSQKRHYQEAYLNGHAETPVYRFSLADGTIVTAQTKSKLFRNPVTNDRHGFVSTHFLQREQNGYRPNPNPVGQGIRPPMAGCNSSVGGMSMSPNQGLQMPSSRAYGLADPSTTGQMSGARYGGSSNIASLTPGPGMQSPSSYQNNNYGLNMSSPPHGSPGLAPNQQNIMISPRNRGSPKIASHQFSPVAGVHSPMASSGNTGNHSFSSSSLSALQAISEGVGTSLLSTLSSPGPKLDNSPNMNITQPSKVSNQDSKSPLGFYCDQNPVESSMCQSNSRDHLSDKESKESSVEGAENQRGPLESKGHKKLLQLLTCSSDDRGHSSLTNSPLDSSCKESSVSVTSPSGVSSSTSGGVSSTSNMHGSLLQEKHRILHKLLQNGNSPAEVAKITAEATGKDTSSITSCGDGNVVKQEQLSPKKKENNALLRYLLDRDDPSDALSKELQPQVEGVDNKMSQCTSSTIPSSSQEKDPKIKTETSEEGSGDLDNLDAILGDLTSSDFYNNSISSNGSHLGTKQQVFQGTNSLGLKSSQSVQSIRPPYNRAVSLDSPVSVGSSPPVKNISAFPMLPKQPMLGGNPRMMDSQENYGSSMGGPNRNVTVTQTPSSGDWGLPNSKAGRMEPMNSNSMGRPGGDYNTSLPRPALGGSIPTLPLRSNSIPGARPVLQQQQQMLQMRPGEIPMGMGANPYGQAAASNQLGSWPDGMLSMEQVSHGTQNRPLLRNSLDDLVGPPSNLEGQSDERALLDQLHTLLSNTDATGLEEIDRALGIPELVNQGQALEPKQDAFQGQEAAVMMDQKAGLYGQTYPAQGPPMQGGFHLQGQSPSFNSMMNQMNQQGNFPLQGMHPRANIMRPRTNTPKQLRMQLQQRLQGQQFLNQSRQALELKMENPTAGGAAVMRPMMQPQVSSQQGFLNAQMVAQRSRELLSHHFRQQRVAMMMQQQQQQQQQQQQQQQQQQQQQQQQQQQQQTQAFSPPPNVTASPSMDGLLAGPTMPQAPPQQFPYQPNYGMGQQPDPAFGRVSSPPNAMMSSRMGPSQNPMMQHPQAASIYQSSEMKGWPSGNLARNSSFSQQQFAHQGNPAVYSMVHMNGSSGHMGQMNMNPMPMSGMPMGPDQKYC

[11] = Luminescence Cell-Based Dose Confirmation to Identify Activators of 5'UTR Stem-Loop Driven Alpha-Synuclein mRNA Translation in H4 Neuroglioblastoma Cells. [Related pubchem assays: 1829 (Project Summary), 1814 (Primary HTS)]; type: functional
[12] = Luminescence Cell-Based Dose Response to Identify Activators of Luciferase Translation or Activity in H4-C Neuroglioblastoma Cells. [Related pubchem assays: 1829 (Project Summary), 1814 (Primary HTS)]; type: functional
[13] = Luminescence Cell-Based Dose Response to Identify Activators of 5'UTR Stem-Loop Driven Prion Protein mRNA Translation in H4-C Neuroglioblastoma Cells. [Related pubchem assays: 1829 (Project Summary), 1814 (Primary HTS)]; type: functional
[14] = inhibitors of firefly luciferase expression or activity, dose response, H4 neuroglioma cells, luminescence (AID 1990); type: functional, cell-based
cells [15] = type: functional, cell-based
[16] = inhibitors of SNCA 5'UTR-driven reporter translation, confirmation, H4 neuroglioma cells, luminescence (AID 1988); type: functional, cell-based
[17] = inhibitors of clade B AD8 Env fusion, dose response, cell-based, cherry-pick (AID 652062); type: functional;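 note: luciferase signal from cell-cell fusion driven by HIV-1 clade B AD8 Env; potency is for inhibitors of fusion seen as a drop in luminescence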
[18] = off-target signal loss in HeLa-CEM21 co-culture – HeLa F-luc CTL cells, cherry-picked, counter-screen for HIV-1 Env fusion inhibitor project, dose response (AID 652040); type: functional, cell-based;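 note: potency for signal decrease marking cytotoxic or nonspecific inhibition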
[19] = CEM21 lymphoblast cell cytotoxicity, dose response, cytotoxicity control for viral fusion inhibitor project, CellTiter-Glo luminescence, cherry-picked (AID 652042); type: functional, cell-based;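 note: potency for signal decrease meaning cytotoxicity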
[20] = biological target: T2, Heat shock factor protein 1 (Mus musculus, UniProt P38532); assay: inhibition of MG132-induced HSE-luciferase signal, confirmation, cell-based, NIH3T3, luminescence, dose retest (AID 2382); type: functional;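 note: NIH3T3 fibroblasts with HSF1-driven luciferase reporter stressed by proteasome inhibitor MG132; luminescence from HSF1-driven luciferase expression after 8 hours of MG132 stress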
T2 sequence (P38532 whole entry): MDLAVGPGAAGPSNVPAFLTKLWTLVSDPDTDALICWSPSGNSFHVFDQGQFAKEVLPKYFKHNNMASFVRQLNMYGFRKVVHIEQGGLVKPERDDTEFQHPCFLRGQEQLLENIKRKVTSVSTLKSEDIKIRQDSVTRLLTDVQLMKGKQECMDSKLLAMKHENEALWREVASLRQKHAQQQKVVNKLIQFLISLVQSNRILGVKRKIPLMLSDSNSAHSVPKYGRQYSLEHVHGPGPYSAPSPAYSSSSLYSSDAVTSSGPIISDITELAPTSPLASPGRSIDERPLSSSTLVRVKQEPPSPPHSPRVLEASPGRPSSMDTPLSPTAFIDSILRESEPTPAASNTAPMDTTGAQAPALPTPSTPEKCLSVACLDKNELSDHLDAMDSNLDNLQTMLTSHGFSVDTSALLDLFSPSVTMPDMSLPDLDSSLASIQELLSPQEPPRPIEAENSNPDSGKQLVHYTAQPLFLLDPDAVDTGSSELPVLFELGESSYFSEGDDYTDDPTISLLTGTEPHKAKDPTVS

[21] = inhibitors of HIV Env-driven cell fusion, dose response, cherry-pick (AID 652057); type: functional, cell-based
[22] = ZM109 Env clade C HIV-1 fusion inhibitors, dose response, HeLa effector, CEM target cells, luciferase, cherry-pick (AID 652058); type: functional, cell-based
cells [23] = type: functional, cell-based; remark: listed apart in the source
[24] = Luminescence Cell-Based Dose Response HTS to Identify Inhibitors of 5'UTR Stem-Loop Driven Prion Protein mRNA Translation in H4 Neuroglioblastoma Cells. [Related pubchem assays: 1827 (Project Summary), 1813 (Primary HTS)]; type: functional
[25] = P. falciparum Dd2 growth inhibitors, dose response, SYBR Green, cherry-picked samples (AID 1159567); type: functional, cell-based

COc1cccc(CC2(CO)CCCN(Cc3cn(C)c4ccccc34)C2)c1 (configuration not stated)
EC50 [1]: 20 µM (active)
EC50 (cells [2]): 0.051 µM (active)
EC50 [3]: < 0.1 µM (active)

CCOC(=O)C1=C(NC(=S)NC(=O)c2ccccc2)c2ccccc2CC1(C)C
EC50 (Mucolipin-3): 5.5 µM (active)
EC50 (Ion channel NompC): > 29.9 µM (not active)

Cc1ccsc1C(=O)C1CCCN(Cc2cnn(C(C)C)c2)C1 (configuration not stated)
EC50 [1]: > 60 µM (inconclusive)
EC50 (cells [2]): 0.01 µM (active)
EC50 [3]: < 0.1 µM (active)

CN(C)CCN(C(=O)c1ccc2c(c1)OCCO2)c1nc2ccc(Cl)cc2s1
EC50 [1]: > 60 µM (not active)
EC50 (H4): > 120 µM (not active)
EC50 [4]: 15.6 µM (active)
EC50 [5]: > 120 µM (not active)
EC50 (cells [2]): 0.088 µM (active)
EC50 [3]: < 0.1 µM (active)

CCCS(=O)(=O)N1CCC(C(=O)NCCc2ccccc2)CC1
EC50 [6]: > 20 µM (not active)
EC50 [7]: > 20 µM (not active)

CC1CN(c2oc(COc3ccc(Cl)cc3Cl)nc2C#N)CC(C)O1 (configuration not stated)
EC50 [6]: > 20 µM (not active)
EC50 [7]: > 20 µM (not active)

CSCCNC(C)=O
EC50 [8]: > 79.4 µM (not active)
EC50 [9]: > 79.4 µM (not active)
EC50 [10]: > 79.4 µM (not active)

CC(=N)/C(C#N)=C(/O)CSc1nc2cc(C)ccc2[nH]1
EC50 [11]: 0.424 µM (active)
EC50 [12]: 0.296 µM (active)
EC50 [13]: 0.321 µM (active)
EC50 [4]: < 0.1 µM (active)
EC50 [5]: 1.68 µM (active)

COc1ccc2cc3c(N)nn(C(=O)Cc4c[nH]c5ccccc45)c3nc2c1
EC50 [14]: < 0.1 µM (active)
EC50 (cells [15]): > 350 µM (not active)
EC50 [16]: 11.5 µM (active)
AC50 [17]: 0.563 µM (active)
AC50 [18]: 0.512 µM (active)
AC50 [19]: 7.5 µM (active)
EC50 [20]: 0.269 µM (active)
AC50 [21]: 0.352 µM (active)
AC50 [22]: 0.261 µM (active)
EC50 (cells [23]): > 350 µM (not active)
EC50 [24]: 23 µM (active)

Cc1ccc(-c2csc(NC(=O)C3=COCCO3)n2)cc1C
EC50 [11]: 0.353 µM (active)
EC50 [12]: 0.301 µM (active)
EC50 [1]: > 60 µM (not active)
EC50 [13]: 2.75 µM (active)
EC50 [4]: < 0.1 µM (inconclusive)
EC50 [3]: 0.846 µM (active)

COc1ccc2c3c(n(C)c2c1)[C@H](CO)N(Cc1ccccc1F)CC31CCN(CC2CC2)CC1
AC50 [25]: 3.46 µM (active)

CCCCC(CC)Cn1c2nc3ccccc3nc2c2c(=N)oc(C)nc21 (configuration not stated)
EC50 [8]: > 79.4 µM (not active)
EC50 [9]: > 79.4 µM (not active)
EC50 [10]: 84.3 µM (not active)
